Measured values taken from ChEMBL document CHEMBL4418314, “Cyano-substituted heterocycles with activity as inhibitors of usp30” (2018).

Target: T1, Ubiquitin carboxyl-terminal hydrolase 30 (Homo sapiens, UniProt Q70CQ3)
T1 sequence (Q70CQ3 whole entry): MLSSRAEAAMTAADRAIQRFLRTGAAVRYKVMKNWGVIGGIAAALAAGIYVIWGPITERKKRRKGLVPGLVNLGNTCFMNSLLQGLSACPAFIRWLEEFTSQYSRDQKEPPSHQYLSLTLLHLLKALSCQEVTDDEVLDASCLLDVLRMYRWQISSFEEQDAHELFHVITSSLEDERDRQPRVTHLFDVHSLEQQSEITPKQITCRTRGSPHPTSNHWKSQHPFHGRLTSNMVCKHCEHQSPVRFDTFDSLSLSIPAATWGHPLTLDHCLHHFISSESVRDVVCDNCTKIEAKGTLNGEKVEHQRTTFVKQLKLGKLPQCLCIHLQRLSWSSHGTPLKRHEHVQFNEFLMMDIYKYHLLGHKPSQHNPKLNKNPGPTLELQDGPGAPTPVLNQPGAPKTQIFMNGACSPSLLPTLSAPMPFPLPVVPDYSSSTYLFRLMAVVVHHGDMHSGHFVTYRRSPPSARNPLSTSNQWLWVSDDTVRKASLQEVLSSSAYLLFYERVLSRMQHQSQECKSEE
Assay: Inhibition of untagged human USP30 catalytic domain (57 to 517 residues) expressed in Escherichia coli using TAMRA labeled ubiquitin peptide as substrate preincubated for 30 min followed by substrate addition and measured after 2 hrs by fluorescence polarization assay

## N#CN1CCC[C@](F)(C(=O)Nc2cc(-c3cccc(C(F)(F)F)c3)on2)C1
  IC50: < 100 nM
